From patent US20100297692A1, “REACTION MEDIUM FOR DETECTING AND/OR IDENTTIFYING STAPHYLOCCOUS AUREUS” (BIOMERIEUX, priority 2007, published 2010)

Key:
S. aureus (MRSA) = experiment: β-D-ribosidase substrates in Columbia agar, colored or fluorescent colonies; type: cell-based, Staphylococcus aureus
Description: (§1) The media hereinafter were prepared in 200 ml of a Columbia agar base (Oxoid), in combination with the chromogenic β-D-ribosidase substrates. The various substrates and also the concentrations and the additives used in the media are described in Table 1 below:
(§2) The β-D-ribosidase substrates are solubilized in DMSO and added to the media so as to obtain the concentrations indicated in Table 1.
(§3) 191 bacterial strains were inoculated onto each of the media using a suspension at 0.5 MacFarland diluted to 1/1000. The dishes were incubated at 37° C. and then read.
(§4) The media were distributed into Petri dishes, then inoculated with approximately 100 000 CFU, then incubated at 37° C. for 48 h. The colonies formed were examined visually after incubation times of 18, 24 and 48 hours.
(§5) The stock collection of 191 strains comprised: […], 48 Staphylococcus spp, 61 Enterococcus spp and 3 alpha-hemolytic Streptococcus.

S. aureus (MSSA) = experiment: as above; type: cell-based, Staphylococcus aureus
Description: as §1, §2, §3, §4, §5

S aureus (MRSA and MSSA) = experiment: Catechol-β-D-riboside and X-β-D-riboside on a broad panel of Staphylococcus spp; type: cell-based
Description: (§6) Catechol-β-D-riboside: A GTS medium (bioMérieux) supplemented with 300 mg/l of catechol-β-D-riboside, then autoclaved, and with 500 mg/l of ammoniacal iron citrate was used and distributed into Petri dishes 55 mm in diameter.
(§7) X-β-D-riboside: A modified Chapman medium, without NaCl, autoclaved and supplemented with 60 mg/l of X-β-D-riboside, was used and distributed into Petri dishes 55 mm in diameter.
For the two media, the inoculation was carried out using precultures prepared for 24 h at 37° C. A suspension in physiological saline at 0.5 McF was prepared and then each strain was inoculated onto a dish using a 10 μl calibrated loop. […]
(§8) In total, […] were tested: 34 S. aureus, including 25 MRSAs, and 46 other species of Staphylococcus (including S. schleiferi; S. capitis; S. hyicus; S. intermedius; S. haemolyticus; S. auricularis; S. hominis; S. warneri; S. chromogenes; S. cohnii; S. epidermidis; S. sciuri; S. xylosus; S. saprophyticus).

[1] = test system: Coagulase-negative Staphylococci; experiment: β-D-ribosidase substrates in Columbia agar, colored or fluorescent colonies; type: cell-based, Staphylococcus spp; details: for % of strains producing colored or fluorescent colonies: Coagulase-negative Staphylococci
Description: as §1, §2, §3, §4, §5

Enterococci = experiment: as above; type: cell-based, Enterococcus spp
Description: as §1, §2, §3, §4, §5

[2] = test system: Alpha-hemolytic streptococci; experiment: as above; type: cell-based, alpha-hemolytic Streptococcus
Description: as §1, §2, §3, §4, §5

Coag neg = experiment: Catechol-β-D-riboside and X-β-D-riboside on a broad panel of Staphylococcus spp; type: cell-based
Description: as §6, §7
For the two media, the inoculation was carried out using precultures prepared for 24 h at 37° C. A suspension in physiological saline at 0.5 McF was prepared and then each strain was inoculated onto a dish using a 10 μl calibrated loop.
(§9) The readings were carried out after 24 and 48 hours of incubation at 37° C.
as §8

Micrococcus luteus = experiment: β-D-ribosidase substrates in Columbia agar, colored or fluorescent colonies; type: cell-based
Description: [The procedure below names another organism; the source lists this organism under the same test.] as §1, §2, §3, §4, §5

Coagulase-negative = experiment: Catechol-β-D-riboside in a liquid medium, coloration; type: cell-based
Description: (§10) The medium hereinafter had the same composition as a chromID S. aureus base (bioMérieux), with no selective agents nor agar, so as to obtain a liquid medium. The substrates and inducers were replaced, before autoclaving, with […] of catechol-β-D-riboside, solubilized in DMSO, and with ammoniacal iron citrate at 500 mg/l. The medium was then distributed into tubes in a proportion of 1.5 ml/tube.
For this medium, the inoculation was carried out using precultures prepared for 24 h at 37° C. A suspension of physiological saline at 0.5 McF was prepared and then each tube was inoculated with 10 μl of bacterial suspension.
as §9
(§11) In total, 11 staphylococcus strains were tested; 5 S. aureus and 6 of other species of the Staphylococcus genus (coagulase-negative).

[3] = test system: S. aureus (MRSA and MSSA); experiment: as above; type: cell-based, Staphylococcus aureus
Description: as §10
For this medium, the inoculation was carried out using precultures prepared for 24 h at 37° C. A suspension of physiological saline at 0.5 McF was prepared and then each tube was inoculated with 10 μl of bacterial suspension. […]
as §11

[4] = modified Chapman medium without NaCl, 60 mg/l substrate
[5] = 400 mg/L + ammoniacal iron citrate 100 mg/l, 18 h
[6] = 400 mg/L + ammoniacal iron citrate 100 mg/l, 24 h
[7] = 400 mg/L + ammoniacal iron citrate 100 mg/l, 48 h
[8] = GTS medium, 300 mg/l substrate, 500 mg/l ammoniacal iron citrate

For “5-Bromo-4-chloro-3-indoxyl-beta-D-riboside [X-β-riboside]”, the “% of strains producing colored or fluorescent colonies” value (S. aureus (MRSA); 80 mg/L, 18 h) was 84%, the “% of strains producing colored or fluorescent colonies” value (S. aureus (MRSA); 80 mg/L, 24 h) was 92% and the “% of strains producing colored or fluorescent colonies” value (S. aureus (MRSA); 80 mg/L, 48 h) was 97%. For the same molecule, the “% of strains producing colored or fluorescent colonies” value (S. aureus (MRSA); 200 mg/L, 18 h) was 82%, the “% of strains producing colored or fluorescent colonies” value (S. aureus (MRSA); 200 mg/L, 24 h) was 87% and the “% of strains producing colored or fluorescent colonies” value (S. aureus (MRSA); 200 mg/L, 48 h) was 95%. For the same molecule, the “% of strains producing colored or fluorescent colonies” value (S. aureus (MSSA); 80 mg/L, 18 h) was 64%, the “% of strains producing colored or fluorescent colonies” value (S. aureus (MSSA); 80 mg/L, 24 h) was 100% and the “% of strains producing colored or fluorescent colonies” value (S. aureus (MSSA); 80 mg/L, 48 h) was 100%. For the same molecule, the “% of strains producing colored or fluorescent colonies” value (S. aureus (MSSA); 200 mg/L, 18 h) was 64%, the “% of strains producing colored or fluorescent colonies” value (S. aureus (MSSA); 200 mg/L, 24 h) was 64% and the “% of strains producing colored or fluorescent colonies” value (S. aureus (MSSA); 200 mg/L, 48 h) was 100%. For the same molecule, the “Number of strains producing a coloration/total number of strains, positive at 18 h” value (S aureus (MRSA and MSSA); [4]) was 17/34, the “Number of strains producing a coloration/total number of strains, positive at 24 h” value (S aureus (MRSA and MSSA); [4]) was 29/34 and the “Number of strains producing a coloration/total number of strains, positive at 48 h” value (S aureus (MRSA and MSSA); [4]) was 33/34. For the same molecule, the “% of strains producing colored or fluorescent colonies” value ([1]; 80 mg/L, 18 h) was 3%, the “% of strains producing colored or fluorescent colonies” value ([1]; 80 mg/L, 24 h) was 6% and the “% of strains producing colored or fluorescent colonies” value ([1]; 80 mg/L, 48 h) was 6%. The “% of strains producing colored or fluorescent colonies” value ([1]; 200 mg/L, 18 h) was 3%, the “% of strains producing colored or fluorescent colonies” value ([1]; 200 mg/L, 24 h) was 3% and the “% of strains producing colored or fluorescent colonies” value ([1]; 200 mg/L, 48 h) was 3%. The “false positives among the coagulase-negative staphylococci” value ([1]; Columbia agar, 24 h of incubation, concentration not given) was 3%, the “% of strains producing colored or fluorescent colonies” value (Enterococci; 80 mg/L, 18 h) was 2% and the “% of strains producing colored or fluorescent colonies” value (Enterococci; 80 mg/L, 24 h) was 2%. The “% of strains producing colored or fluorescent colonies” value (Enterococci; 80 mg/L, 48 h) was 2%, the “% of strains producing colored or fluorescent colonies” value (Enterococci; 200 mg/L, 18 h) was 2% and the “% of strains producing colored or fluorescent colonies” value (Enterococci; 200 mg/L, 24 h) was 2%. The “% of strains producing colored or fluorescent colonies” value (Enterococci; 200 mg/L, 48 h) was 2%, the “% of strains producing colored or fluorescent colonies” value ([2]; 80 mg/L, 18 h) was 0% and the “% of strains producing colored or fluorescent colonies” value ([2]; 80 mg/L, 24 h) was 0%. The “% of strains producing colored or fluorescent colonies” value ([2]; 80 mg/L, 48 h) was 0%, the “% of strains producing colored or fluorescent colonies” value ([2]; 200 mg/L, 18 h) was 0% and the “% of strains producing colored or fluorescent colonies” value ([2]; 200 mg/L, 24 h) was 0%. The “% of strains producing colored or fluorescent colonies” value ([2]; 200 mg/L, 48 h) was 0%, the “Number of strains producing a coloration/total number of strains, positive at 18 h” value (Coag neg; [4]) was 7/46 and the “Number of strains producing a coloration/total number of strains, positive at 24 h” value (Coag neg; [4]) was 12/46. The “Number of strains producing a coloration/total number of strains, positive at 48 h” value (Coag neg; [4]) was 14/46, the “% of strains producing colored or fluorescent colonies” value (Micrococcus luteus; 80 mg/L, 18 h) was 0% and the “% of strains producing colored or fluorescent colonies” value (Micrococcus luteus; 80 mg/L, 24 h) was 0%. The “% of strains producing colored or fluorescent colonies” value (Micrococcus luteus; 80 mg/L, 48 h) was 0%, the “% of strains producing colored or fluorescent colonies” value (Micrococcus luteus; 200 mg/L, 18 h) was 0% and the “% of strains producing colored or fluorescent colonies” value (Micrococcus luteus; 200 mg/L, 24 h) was 0%. The “% of strains producing colored or fluorescent colonies” value (Micrococcus luteus; 200 mg/L, 48 h) was 0%.

With `OC[C@H]1O[C@@H](Oc2ccccc2O)[C@H](O)[C@@H]1O` [Catechol-β-riboside, 2-Hydroxyphenyl-beta-D-riboside] the “Number of strains producing a coloration, Positive at 18 h” value (Coagulase-negative; 300 ml/g catechol-β-D-riboside, ammoniacal iron citrate 500 mg/l, coagulase-negative, 18 h) was 0/6, the “Number of strains producing a coloration, Positive at 24 h” value (Coagulase-negative; 300 ml/g catechol-β-D-riboside, ammoniacal iron citrate 500 mg/l, coagulase-negative, 24 h) was 0/6 and the “Number of strains producing a coloration, Positive at 48 h” value (Coagulase-negative; 300 ml/g catechol-β-D-riboside, ammoniacal iron citrate 500 mg/l, coagulase-negative, 48 h) was 1/6. The “detection of the other species of the Staphylococcus genus” value (Coagulase-negative; from 18 hours onward) was “none of the other species of the Staphylococcus genus were detected”, the “% of strains producing colored or fluorescent colonies” value (S. aureus (MRSA); [5]) was 100% and the “% of strains producing colored or fluorescent colonies” value (S. aureus (MRSA); [6]) was 100%. The “% of strains producing colored or fluorescent colonies” value (S. aureus (MRSA); [7]) was 100%, the “% of strains producing colored or fluorescent colonies” value (S. aureus (MSSA); [5]) was 100% and the “% of strains producing colored or fluorescent colonies” value (S. aureus (MSSA); [6]) was 100%. The “% of strains producing colored or fluorescent colonies” value (S. aureus (MSSA); [7]) was 100%, the “Number of strains producing a coloration/total number of strains, positive at 18 h” value (S aureus (MRSA and MSSA); [8]) was 19/34 and the “Number of strains producing a coloration/total number of strains, positive at 24 h” value (S aureus (MRSA and MSSA); [8]) was 31/34. The “Number of strains producing a coloration/total number of strains, positive at 48 h” value (S aureus (MRSA and MSSA); [8]) was 34/34, the “Number of strains producing a coloration, Positive at 18 h” value ([3]; 300 ml/g catechol-β-D-riboside, ammoniacal iron citrate 500 mg/l, S. aureus, 18 h) was 5/5 and the “Number of strains producing a coloration, Positive at 24 h” value ([3]; 300 ml/g catechol-β-D-riboside, ammoniacal iron citrate 500 mg/l, S. aureus, 24 h) was 5/5. For the same molecule, the “Number of strains producing a coloration, Positive at 48 h” value ([3]; 300 ml/g catechol-β-D-riboside, ammoniacal iron citrate 500 mg/l, S. aureus, 48 h) was 5/5, the “coloration for S. aureus” value ([3]; from 18 hours onward) was 100% and the “% of strains producing colored or fluorescent colonies” value [1, 5] was 3%. For the same molecule, the “% of strains producing colored or fluorescent colonies” value [1, 6] was 3%, the “% of strains producing colored or fluorescent colonies” value [1, 7] was 3% and the “% of strains producing colored or fluorescent colonies” value (Enterococci; [5]) was 2%. For the same molecule, the “% of strains producing colored or fluorescent colonies” value (Enterococci; [6]) was 2%, the “% of strains producing colored or fluorescent colonies” value (Enterococci; [7]) was 2% and the “% of strains producing colored or fluorescent colonies” value [2, 5] was 0%. For the same molecule, the “% of strains producing colored or fluorescent colonies” value [2, 6] was 0%, the “% of strains producing colored or fluorescent colonies” value [2, 7] was 0% and the “Number of strains producing a coloration/total number of strains, positive at 18 h” value (Coag neg; [8]) was 10/46. For the same molecule, the “Number of strains producing a coloration/total number of strains, positive at 24 h” value (Coag neg; [8]) was 14/46, the “Number of strains producing a coloration/total number of strains, positive at 48 h” value (Coag neg; [8]) was 14/46 and the “% of strains producing colored or fluorescent colonies” value (Micrococcus luteus; [5]) was 0%. The “% of strains producing colored or fluorescent colonies” value (Micrococcus luteus; [6]) was 0% and the “% of strains producing colored or fluorescent colonies” value (Micrococcus luteus; [7]) was 0%.
